# Values of other authors in US8202858B2, “Vasopressin V1a antagonists” (priority 2004, dated 2012).
# Target: T1, V1a vasopressin receptor (Homo sapiens, UniProt P37288)
# T1 construct: host or cells: patients (clinical study)
# Settings: patients with dysmenorrhoea, compared to placebo
# T1 sequence (P37288 whole entry): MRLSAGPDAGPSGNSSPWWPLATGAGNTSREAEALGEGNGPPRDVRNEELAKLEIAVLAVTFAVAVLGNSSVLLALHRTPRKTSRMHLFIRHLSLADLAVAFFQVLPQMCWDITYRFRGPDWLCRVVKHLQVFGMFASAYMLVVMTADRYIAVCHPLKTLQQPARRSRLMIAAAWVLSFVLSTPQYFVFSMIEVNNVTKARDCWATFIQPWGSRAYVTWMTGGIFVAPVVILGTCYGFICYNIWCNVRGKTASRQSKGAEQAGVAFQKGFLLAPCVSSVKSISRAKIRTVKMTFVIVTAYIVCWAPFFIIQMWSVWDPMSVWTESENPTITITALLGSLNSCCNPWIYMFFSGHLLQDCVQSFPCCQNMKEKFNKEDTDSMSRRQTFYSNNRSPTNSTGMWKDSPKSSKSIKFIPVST
structure (smiles),measurement,value
COc1ccc(S(=O)(=O)N2c3ccc(Cl)cc3[C@](O)(c3ccccc3Cl)[C@@H]2C(=O)N2CCC[C@H]2C(N)=O)cc1OC [SR49059],amount of additional pain-killer taken,dose-related decrease in the amount of additional pain-killer taken
same,pain,dose-related decrease in pain
